Each block holds one molecule with its values, some of them ahead of it.
Experiments:
H4βAPP695 wt cells = assay: Cytotoxicity by total cell protein content (BCA) of H4βAPP695 wt cells; conditions: cytotoxicity
Method: Cells were washed with cold phosphate buffered saline (PBS) and lysed on ice by vigorous mixing over 15 min with RIPA buffer containing 50 mM Tris-HCl (pH 8.0), 150 mM sodium chloride, 1% NP-40, 0.5% sodium deoxycholate, and 0.1% SDS, supplemented with 10% protease inhibitor cocktail and 2 mM PMSF. After centrifugation at 14000 g for 30 min to remove nuclei and other debris at 4° C., the protein content of the supernatants was measured using the BCA assay kit (Pierce).
The initial screen was performed in 96-well plates with drugs distributed by the hanging drop method yielding estimated drug levels of 10-25 μM. Total Aβ levels in the 24 h conditioned media were measured by a sandwich ELISA assay, and cytotoxicity was assessed by methylene blue staining of the cells in the wells, as previously described.

Aβ secretion = assay: Secreted total Aβ ELISA in conditioned media of H4βAPP695 wt cells; assay type: cell-based, human; conditions: for inhibition at 10 µM / inhibition at 30 µM: Homo sapiens, 24 h, H4βAPP695 wt cells; for inhibition at 10 µM: read-out: Total Aβ (% decrease) 10 μM Mean; for inhibition at 30 µM: read-out: Total Aβ (% decrease) 30 μM Mean; for Aβ secretion inhibiting activity (structure activity summary): in words
Method: H4βAPP695 wt cells, a human […] cell line stably transfected with a wtβAPP695 expression vector construct under the control of a CMV promoter (kindly provided by Dr. Chris Eckman from Mayo Clinic, Florida) were cultured as previously described. Twenty-four hours before drug treatment, the media was replaced with serum-free media. Cells were then incubated with drugs (dissolved in DMSO) or vehicle for 24 h for collection of conditioned media and cell lysates. For the PKC inhibitors experiment, three inhibitors were treated 30 min prior to drug challenge. Primary cortical neurons were prepared from embryonic day 18 APP and presenilin 1 (APPswe, PSEN1dE9) transgenic mice on the C57BL/6 genetic background (Jackson Laboratories, strain no. 5864) as previously described. THLE-3 human hepatoma cells (from ATCC) were plated in 24-well plates that were precoated with 10 μg/mL bovine serum albumin, 10 μg/mL fibronectin, and 30 μg/mL bovine type I collagen. The cells were grown in BEGM media (Clonetics) until confluent and treated with drugs at 20 μM for 24 h. This conditioned media was harvested, diluted 1:1 in serum-free medium, and incubated with H4βAPP695 wt cells for 24 h prior to analysis of secreted Aβ, which was compared to the effect of 10 μM drug treatments without prior incubation with the THLE-3 cells. Caco-2 cells (ATCC) were plated in 12-well plates with Transwell inserts (Costar) at 70000 cells per well and grown for 21 days. The media volume of the apical and basal chambers was 0.5 and 1.5 mL, respectively. Transepithelial resistance was measured in each well and found to be >160 Ω/cm^2. Drugs at 40 μM and 20 μg/mL of lucifer yellow were added in serum-free medium to the apical chamber. Four hours later, the basal chamber media was harvested and used to measure lucifer yellow fluorescence to confirm monolayer integrity as well as for treatment of H4βAPP695 wt cells for 24 h prior to analysis of secreted Aβ, which was compared to the effect of direct addition of 10 μM of the corresponding drug.

melting point: 104 to 106 °C
Compound: O=C(NCCSCc1ccc(Cl)cc1)c1c(Cl)cccc1Cl [Compound 77, 2,6-Dichloro-N-[2-(4-chloro-benzylsulfanyl)-ethyl]-benzamide]
Cell protein (% decrease) 10 μM Mean (H4βAPP695 wt cells): −6.4% | Cell protein (% decrease) 30 μM Mean (H4βAPP695 wt cells): 3% | inhibition at 10 µM (Aβ secretion): 21.8% | inhibition at 30 µM (Aβ secretion): 36.5% | Aβ secretion inhibiting activity (structure activity summary) (Aβ secretion): loss of activity

melting point: 41 to 43 °C
Compound: O=C(NCCSCc1cccc(Cl)c1)c1c(F)cccc1F [Compound 67, N-[2-(3-Chloro-benzylsulfanyl)-ethyl]-2,6-difluoro-benzamide]
Cell protein (% decrease) 10 μM Mean (H4βAPP695 wt cells): 5.1% | Cell protein (% decrease) 30 μM Mean (H4βAPP695 wt cells): 8.1% | inhibition at 10 µM (Aβ secretion): 4.9% | inhibition at 30 µM (Aβ secretion): 21.6% | Aβ secretion inhibiting activity (structure activity summary) (Aβ secretion): not well tolerated

melting point: 55 to 57 °C
Compound: O=C(NCCSCc1cc(O)cc(O)c1)c1c(Cl)cccc1Cl [Compound 59, 2,6-Dichloro-N-[2-(3,5-dihydroxy-benzylsulfanyl)-ethyl]-benzamide]
Cell protein (% decrease) 10 μM Mean (H4βAPP695 wt cells): −0.4% | Cell protein (% decrease) 30 μM Mean (H4βAPP695 wt cells): −0.7% | inhibition at 10 µM (Aβ secretion): 3.1% | inhibition at 30 µM (Aβ secretion): 17.2% | Aβ secretion inhibiting activity (structure activity summary) (Aβ secretion): lost activity

melting point: 46 to 47 °C
Compound: COc1cc(CSCCNC(=O)c2c(Cl)cccc2Cl)cc(OC)c1 [Compound 60, 2,6-Dichloro-N-[2-(3,5-dimethoxy-benzylsulfanyl)-ethyl]-benzamide]
Cell protein (% decrease) 10 μM Mean (H4βAPP695 wt cells): 2% | Cell protein (% decrease) 30 μM Mean (H4βAPP695 wt cells): −8.7% | inhibition at 10 µM (Aβ secretion): 47.9% | inhibition at 30 µM (Aβ secretion): 80.4% | Aβ secretion inhibiting activity (structure activity summary) (Aβ secretion): could be tolerated

melting point: 70 to 72 °C
Compound: O=C(NCCSCc1cccc(Br)c1)c1c(Br)cccc1Br [Compound 55, 2,6-Dibromo-N-[2-(3-bromo-benzylsulfanyl)-ethyl]-benzamide]
Cell protein (% decrease) 10 μM Mean (H4βAPP695 wt cells): 9.8% | Cell protein (% decrease) 30 μM Mean (H4βAPP695 wt cells): 23.9% | inhibition at 30 µM (Aβ secretion): 87.3% | Aβ secretion inhibiting activity (structure activity summary) (Aβ secretion): maintained activity

melting point: 46 to 47 °C
Compound: O=C(NCCSCc1cccc(NC(=O)C2CC2)c1)c1c(Cl)cccc1Cl [Compound 69, 2,6-Dichloro-N-(2-[3-(cyclopropanecarbonyl-amino)-benzylsulfanyl]-ethyl)-benzamide]
Cell protein (% decrease) 10 μM Mean (H4βAPP695 wt cells): 3% | Cell protein (% decrease) 30 μM Mean (H4βAPP695 wt cells): 3.2% | inhibition at 10 µM (Aβ secretion): -21.4% | inhibition at 30 µM (Aβ secretion): -2% | Aβ secretion inhibiting activity (structure activity summary) (Aβ secretion): did not yield good activity

melting point: 75 to 76 °C
Compound: O=C(NCCSCc1cccc(Cl)c1)c1ccccc1 [Compound 63, N-[2-(3-Chloro-benzylsulfanyl)-ethyl]-benzamide]
Cell protein (% decrease) 10 μM Mean (H4βAPP695 wt cells): 2.4% | Cell protein (% decrease) 30 μM Mean (H4βAPP695 wt cells): −4.5% | inhibition at 10 µM (Aβ secretion): 0.3% | inhibition at 30 µM (Aβ secretion): 10.7% | Aβ secretion inhibiting activity (structure activity summary) (Aβ secretion): not well tolerated

melting point: 174 to 176 °C
Compound: O=C(NCC[S+]([O-])Cc1cccc(Cl)c1)c1c(Cl)cccc1Cl (stereo not shown) [Compound 71, 2,6-Dichloro-N-[2-(3-chloro-phenylmethanesulfinyl)-ethyl]-benzamide]
Cell protein (% decrease) 10 μM Mean (H4βAPP695 wt cells): −4.9% | Cell protein (% decrease) 30 μM Mean (H4βAPP695 wt cells): 7.3% | inhibition at 10 µM (Aβ secretion): 4% | inhibition at 30 µM (Aβ secretion): -16.5% | Aβ secretion inhibiting activity (structure activity summary) (Aβ secretion): No tested substitutions in the linker region were well tolerated

Second part, the molecule before the results:

Compound: COc1cccc(CSCCNC(=O)c2c(OC)cccc2OC)c1 [Compound 34, 2,6-Dimethoxy-N-[2-(3-methoxy-benzylsulfanyl)-ethyl]-benzamide]
melting point: 41 to 43 °C | Cell protein (% decrease) 10 μM Mean (H4βAPP695 wt cells): 0.5% | Cell protein (% decrease) 30 μM Mean (H4βAPP695 wt cells): 3.9% | inhibition at 10 µM (Aβ secretion): 6.2% | inhibition at 30 µM (Aβ secretion): -0.6% | Aβ secretion inhibiting activity (structure activity summary) (Aβ secretion): not well tolerated

Compound: COc1cccc(CSCCNC(=O)c2c(Cl)cccc2OC)c1 [Compound 42, 2-Chloro-6-methoxy-N-[2-(3-methoxy-benzylsulfanyl)-ethyl]-benzamide]
melting point: 58 to 59 °C | Cell protein (% decrease) 10 μM Mean (H4βAPP695 wt cells): 1.9% | Cell protein (% decrease) 30 μM Mean (H4βAPP695 wt cells): 9.3% | inhibition at 10 µM (Aβ secretion): -2.9% | inhibition at 30 µM (Aβ secretion): -4.7%

Compound: CCOC(=O)c1cccc(CSCCNC(=O)c2c(Cl)cccc2Cl)c1 [Compound 43, 3-[2-(2,6-Dichloro-benzoylamino)-ethylsulfanylmethyl]-benzoic Acid Ethyl Ester]
melting point: 43 to 45 °C | Cell protein (% decrease) 10 μM Mean (H4βAPP695 wt cells): 5.8% | Cell protein (% decrease) 30 μM Mean (H4βAPP695 wt cells): 5.4% | inhibition at 10 µM (Aβ secretion): 3% | inhibition at 30 µM (Aβ secretion): 10.1% | Aβ secretion inhibiting activity (structure activity summary) (Aβ secretion): did not yield good activity

Compound: O=Cc1cccc(CSCCNC(=O)c2c(Cl)cccc2Cl)c1 [Compound 49, 2,6-Dichloro-N-[2-(3-formyl-benzylsulfanyl)-ethyl]-benzamide]
melting point: 63 to 65 °C | Cell protein (% decrease) 10 μM Mean (H4βAPP695 wt cells): 1.5% | Cell protein (% decrease) 30 μM Mean (H4βAPP695 wt cells): −2.1% | inhibition at 10 µM (Aβ secretion): 19.9% | inhibition at 30 µM (Aβ secretion): 36.4% | Aβ secretion inhibiting activity (structure activity summary) (Aβ secretion): did not yield good activity

Compound: N#Cc1cccc(CSCCNC(=O)c2c(Cl)cccc2Cl)c1 [Compound 38, 2,6-Dichloro-N-[2-(3-cyano-benzylsulfanyl)-ethyl]-benzamide]
melting point: 123 to 125 °C | Cell protein (% decrease) 10 μM Mean (H4βAPP695 wt cells): −4.8% | Cell protein (% decrease) 30 μM Mean (H4βAPP695 wt cells): 4.3% | inhibition at 10 µM (Aβ secretion): 20% | inhibition at 30 µM (Aβ secretion): 38.7% | Aβ secretion inhibiting activity (structure activity summary) (Aβ secretion): did not yield good activity

Compound: O=C(NCC[S+]([O-])Cc1cccc(O)c1)c1c(Cl)cccc1Cl (stereo not shown) [Compound 33, 2,6-Dichloro-N-[2-(3-hydroxy-phenylmethanesulfinyl)-ethyl]-benzamide]
melting point: 165 to 166 °C | Cell protein (% decrease) 10 μM Mean (H4βAPP695 wt cells): 2.8% | Cell protein (% decrease) 30 μM Mean (H4βAPP695 wt cells): 4.4% | inhibition at 10 µM (Aβ secretion): -23.7% | inhibition at 30 µM (Aβ secretion): 15.9% | Aβ secretion inhibiting activity (structure activity summary) (Aβ secretion): No tested substitutions in the linker region were well tolerated

Compound: O=C(NCCSCc1cccc(Br)c1)c1c(Cl)cccc1Cl [Compound 51, N-[2-(3-Bromo-benzylsulfanyl)-ethyl]-2,6-dichloro-benzamide]
melting point: 74 to 76 °C | Cell protein (% decrease) 10 μM Mean (H4βAPP695 wt cells): 12.3% | Cell protein (% decrease) 30 μM Mean (H4βAPP695 wt cells): 38.6% | inhibition at 30 µM (Aβ secretion): 90.1% | Aβ secretion inhibiting activity (structure activity summary) (Aβ secretion): good activity

Compound: O=C(NCCSCc1cccc([N+](=O)[O-])c1)c1c(Cl)cccc1Cl [Compound 40, 2,6-Dichloro-N-[2-(3-nitro-benzylsulfanyl)-ethyl]-benzamide]
melting point: 76 to 78 °C | Cell protein (% decrease) 10 μM Mean (H4βAPP695 wt cells): 7.5% | Cell protein (% decrease) 30 μM Mean (H4βAPP695 wt cells): 24.6% | inhibition at 10 µM (Aβ secretion): > 50% | inhibition at 30 µM (Aβ secretion): 72.5% | Aβ secretion inhibiting activity (structure activity summary) (Aβ secretion): good activity

Compound: Nc1cccc(CSCCNC(=O)c2c(Cl)cccc2Cl)c1 [Compound 41, N-[2-(3-Amino-benzylsulfanyl)-ethyl]-2,6-dichloro-benzamide]
melting point: 55 to 56 °C | Cell protein (% decrease) 10 μM Mean (H4βAPP695 wt cells): 15.3% | Cell protein (% decrease) 30 μM Mean (H4βAPP695 wt cells): 13.1% | inhibition at 10 µM (Aβ secretion): 0.1% | inhibition at 30 µM (Aβ secretion): 17% | Aβ secretion inhibiting activity (structure activity summary) (Aβ secretion): did not yield good activity

Compound: O=C(O)c1cccc(CSCCNC(=O)c2c(Cl)cccc2Cl)c1 [Compound 44, 3-[2-(2,6-Dichloro-benzoylamino)-ethylsulfanylmethyl]-benzoic Acid]
melting point: 165 to 166 °C | Cell protein (% decrease) 10 μM Mean (H4βAPP695 wt cells): 7.1% | Cell protein (% decrease) 30 μM Mean (H4βAPP695 wt cells): 3.2% | inhibition at 10 µM (Aβ secretion): -11.4% | inhibition at 30 µM (Aβ secretion): -3.8% | Aβ secretion inhibiting activity (structure activity summary) (Aβ secretion): did not yield good activity

Compound: O=C(NCCSCc1ccc(O)cc1)c1c(Cl)cccc1Cl [Compound 28, 2,6-Dichloro-N-[2-(4-hydroxy-benzylsulfanyl)-ethyl]-benzamide]
melting point: 138 to 140 °C | Cell protein (% decrease) 10 μM Mean (H4βAPP695 wt cells): 8.7% | Cell protein (% decrease) 30 μM Mean (H4βAPP695 wt cells): 4.4% | inhibition at 10 µM (Aβ secretion): 13.1% | inhibition at 30 µM (Aβ secretion): 56.7% | Aβ secretion inhibiting activity (structure activity summary) (Aβ secretion): loss of activity

Compound: O=C(NCCSCc1cccc(C(F)(F)F)c1)c1c(Cl)cccc1Cl [Compound 50, 2,6-Dichloro-N-[2-(3-trifluoromethyl-benzylsulfanyl)-ethyl]-benzamide]
melting point: 54 to 55 °C | Cell protein (% decrease) 10 μM Mean (H4βAPP695 wt cells): 19% | inhibition at 30 µM (Aβ secretion): 93.4% | Aβ secretion inhibiting activity (structure activity summary) (Aβ secretion): good activity
